From patent publication US20080193379A1, “Radioactive Diagnostic Imaging Agent” (Nihon Medi-Physics Co., Ltd., priority 2005, published 2008)

Legend:
[1] = Radiolysis stability of 18F-FDG solutions with mannitol: radiochemical purity by TLC (Examples 13-18, Comparative Example 2); assay type: physicochemical; conditions: added at 2.5 mmol/L or higher concentrations
Protocol: The same procedure as in Comparative Example 1 and Examples 1 through 12 was repeated to obtain a ^18F-FDG stock solution (radioactivity=126.3 GBq). To the ^18F-FDG stock solution, physiological saline was added for dilution so that the resulting solution had 92.5 MBq/mL 4.5 hours after preparation. This gave a ^18F-FDG solution.
To 2 mL of the above-obtained ^18F-FDG solution, the mannitol solutions having different concentrations shown in Table 3 were each added in amounts shown in Table 3, and mixed at room temperature to prepare respective sample solutions.
The above-obtained samples were subjected to TLC analysis on the below conditions immediately after the preparation of ^18F-FDG solution (Comparative Example 2 only), and 4.5 and 8.5 hours after the preparation. Radiochemical purity was obtained based on the area percentage of the ^18F-FDG peak. The radiochemical purity at each time point was compared to one another to evaluate stability of the samples.
TLC plate=Silica Gel 60 F254 (under trade name, manufactured by Merck & Co., Inc.)
Developing solvent=acetonitrile/water=19:1
Detector=Radiochromanizer (JTC-R75-21361, manufactured by Aloka)

[2] = aqueous solution; reported by Sara Goldstein et al.; cited from earlier work
[3] = as injection additive; cited from earlier work
glucose transporters = conditions: reported by Heli Teerijoki et al. and A. N. Ouraishi et al.; cited from earlier work

Row | Compound | Prevention of the decrease in radiochemical purity of 18F-FDG caused by radiolysis [1] | Scavenger of OH radicals [2] | Maximum dose for intravenous injection [3] | Substrate for glucose transporters (glucose transporters)
1 | OC[C@@H](O)[C@@H](O)[C@H](O)[C@H](O)CO [mannitol] | can significantly prevent the decrease in the radiochemical purity | acts as a scavenger of OH radials | 1.2 g | does not serve as a substrate for glucose transporters
2 | OC[C@H]1O[C@H](O[C@H]2[C@H](O)[C@@H](O)[C@H](O)O[C@@H]2CO)[C@H](O)[C@@H](O)[C@@H]1O [maltose] |  |  | 10 g | 
3 | OC[C@H]1O[C@@H](O[C@H]2[C@H](O)[C@@H](O)C(O)O[C@@H]2CO)[C@H](O)[C@@H](O)[C@H]1O (stereo partly drawn) [lactose] |  |  | 1.25 g | 
4 | O=C(CO)[C@@H](O)[C@H](O)[C@H](O)CO [fructose] |  |  | 0.9 g | 
5 | OC[C@@H](O)[C@@H](O)[C@H](O)[C@@H](O)CO [sorbitol] |  |  | 1.5 g | 
6 | OC[C@@H](O)[C@H](O)[C@@H](O)CO [xylitol] |  |  | 0.2 g | 
